Test [1] relates to GBM43 cells. As to the kind of experiment: Subcutaneous GBM43 xenograft model. The class given is in vivo, NSG mice. The method, then:
Subcutaneous GBM xenografts were established by inoculating NSG mice with 3×10^6 GBM43 cells in the right flank. Ten days later, when tumors reached a volume of about 80 mm^3, mice were randomly assigned to 5 groups (n=4/group) and treated according to one of the following protocols: (1) PBS only; (2) intravenous (IV) injection of 5×10^6 pNK cells alone; (3) intravenous (IV) injection of 5×10^6 CD73.mCAR-pNK cells alone (Construct 1); (4) intraperitoneal (IP) injection of CQ (50 mg/kg) alone. NK cells were administered once a week for three weeks. The mice receiving adoptive NK cells therapy (groups 2 and 3) also received IL-15 (0.5 μg/mice) by IP injection every 3-4 days. Tumor growth was followed by caliper measurements and tumor volumes were calculated using the formula: V=0.52×L×W×H as described above. Body weights of the mice were recorded throughout the treatment. At the end of the therapy, the mice were sacrificed and tumors were harvested for histologic (IHC/IF) analyses.
Immunohistochemistry (IHC) and immunofluorescence (IF) staining were carried out at the Histology Research Laboratory at the Purdue University College of Veterinary Medicine (West Lafayette, Ind.). Briefly, the tumors were fixed in 10% neutral-buffered formalin, embedded in paraffin, and cut into 3-5 μm sections.
CCL5 and CXCL10 expression in the tumors were detected through the staining using human CCL5/RANTES antibody and CXCL10 antibody respectively. The staining was evaluated based on the intensity (weak=1, moderate=2, and high=3) of chemokine immunostaining and the density (0%=0, 1-40%=1, 41-75%=2, >76%=3) of positive tumor cells. The final score of each sample was multiplied by the intensity and density.
For subcutaneous GBM43 xenografts, NK cell infiltration was investigated by IF staining performed with the following stains: Protein L (Alexa 647, far red), NKp46 (Alexa 488, green) and DAPI nuclear counterstain. CCL5 and CXCL10 expression were evaluated by IHC staining as described above. CD73 expression in the tumors was detected through the staining using human CD73 antibody.
The treatment schedule is summarized in FIG. 17, subpart A. Briefly, 3×10^6 GBM43 cells were subcutaneously (SC) implanted into the right flank of the mice (Day 0). 10 days later (Day 10), mice in the CQ group were intraperitoneally (IP) injected with CQ at 50 mg/kg for 3 weeks, once a week. One day later (Day 11), the mice in pNK and CD73.mCAR-pNK groups were treated with 5×10^6 adoptively-transferred pNK or CD73.mCAR-pNK cells intravenously (IV), once a week for 3 weeks. Starting on the day of the first injection of NK cells, all mice received 0.5 μg of IL-15 once every 3-4 days IP.

Test [2] deals with GBM43 cells. Description: Killing of CQ-treated GBM43 cells by pNK cells. The class given is cell-based, human. Particulars: E/T ratio 5, 4 h. On the procedure:
GBM43 cells were first treated with CQ (varying concentrations), then collected and re-seeded into 96 wells. After overnight culture, the NK cells (NK92 control cells and pNK cells against BECN1^−GBM43) were added at an E/T ratio of 5 and co-incubated for 4 h.
To further investigate the impact of the inhibition of autophagy on the cytotoxic capacity of NK cells, CQ-treated GBM43 cells or BECN1^− GBM43 cells were incubated with pNK cells for 4 h at an E/T ratio of 5.

Substance Chloroquine diphosphate salt [CQ] came in with a mean tumor volume in the test on GBM43 cells [1] (NK cells 5×10^6 IV once a week for 3 weeks, CQ 50 mg/kg IP, PBS group 1475) of 953.25 mm^3. In the test on GBM43 cells [1] (mouse, in vivo), the “CCL5 in tumor tissues (IHC)” value is recorded as “significantly higher presence” and the “CXCL10 in tumor tissues (IHC)” value was “significantly higher presence”. The mean tumor weight with GBM43 cells [1] (necropsy day 28 post-start of treatment, PBS group 2.31) is recorded as 1.16 g. Moreover, the “expression of CD73 on tumors (IHC)” value in the test on GBM43 cells [1] (vs other treatment groups) was “lower level”. The “killing of CQ-treated GBM43 cells by human NK cells” value in the test with GBM43 cells [2] is recorded as “sensitize GBM cells to superior killing”.

The record behind these values is patent US20220362299A1, “ENGINEERED NATURAL KILLER CELLS AND METHODS FOR USING THE SAME IN IMMUNOTHERAPY AND AUTOPHAGY INHIBITON TECHNIQUES” (Purdue Research Foundation, priority 2019, published 2022).
